# Assay results published in patent US6376510B1, “Neuromuscular relaxants” (Newlaxant LLC, priority 1997, dated 2002).
# Like-named read-outs stand apart in the source and are kept apart here.
# Assays:
# anesthetized monkeys = experiment: In vivo neuromuscular block and cardiovascular side effects, monkey (Example 8, Table 6)
# Text: (§1) Both electromyographic and mechanomyographic responses can be quantified.
# (§2) The techniques described under a) and b) were employed in other species as needed with the modification that juvenile pigs were initially anesthetized with inhalation of halothane (Table 5) and monkeys were initially sedated with intramuscular ketamine injections prior to inducing and maintaining general anesthesia using pentobarbital and propofol administered intravenously (Table 6).
# rabbits = experiment: In vivo neuromuscular block and cardiovascular side effects, rabbit (Example 8, Table 7); details: for ED50: intravenous dose causing 50% neuromuscular block; for RI (recovery index): spontaneous recovery, 25-75% neuromuscular response; for Onset: time to 80-85% neuromuscular block
# [1] = test system: anesthetized juvenile pigs; experiment: animal or person; format: in vivo; details: pig; for ED50: intravenous dose causing 50% neuromuscular block; for RI (recovery index): spontaneous recovery, 25-75% neuromuscular response; for Onset: time to 80-85% neuromuscular block
# Text: as §1, §2
# [2] = test system: anesthetized rats (evoked responses of anterior tibial muscle); experiment: In vivo neuromuscular block and cardiovascular side effects, anesthetized rat (Example 8, Table 3); details: for RI (recovery index): spontaneous recovery, 25-75% neuromuscular response; for Onset: time to 80-85% neuromuscular block
# Text: The neuromuscular blocking activity and other effects (e.g. cardiovascular side effects) of selected agents were investigated on several different experimental animals. Justification for this approach lies in the commonly known fact that the pharmacodynamic and pharmacokinetic properties of these agents are markedly variable from species to species. Therefore, the most important aspects of the projected therapeutic utility of these agents, e.g., neuromuscular blocking potency, onset and duration of action, and side effects cannot be ascertained in “in vitro” preparations or by using only one species of animals.
# (§3) a) Adult, male albino rats were anesthetized with pentobarbital injected intraperitoneally. The trachea was cannulated for artificial respiration via a small animal respirator. The carotid artery was cannulated for recording blood pressure via a transducer and heart rate by a cardiotachograph on a polygraph. One external jugular vein was cannulated for i.v. drug administration. Neuromuscular function was monitored by electromyography, recording evoked responses from the anterior tibial muscle as a result of supramaximal nerve stimuli consisting of single or “train-of-four” rectangular pulses of 0.1-0.2 msec duration every 10-12 seconds, delivered to the sciatic or common peroneal nerve by a laboratory nerve stimulator. Another mode of stimulation included repeated single stimuli delivered at 0.1 Hz or 1 Hz. […] The agents were dissolved in physiologic saline and injected intravenously at appropriate time intervals. The intensity, onset, and duration of neuromuscular block and its type were determined with each agent. Through administering several doses, the doses corresponding to 50%, 80% and 90% neuromuscular block were determined. All agents were compared with selected standard neuromuscular blocking compounds, e.g. succinylcholine, pancuronium, mivacurium, or rocuronium.
# (§4) Onset=time in minutes to 80-85% neuromuscular block.
# (§5) RI=recovery index, minutes, spontaneous recovery, 25-75% neuromuscular response.
# (§6) VB=vagal block, %, at 80-85% neuromuscular blocking dose.
# (§7) ΔHR=change in heart rate, %, at 80-85% neuromuscular blocking dose.
# (§8) ΔBP=change in arterial blood pressure, %, at 80-85% neuromuscular blocking dose.
# [3] = test system: anesthetized cats (evoked responses of anterior tibial muscle); experiment: animal or person; details: for ED50: Felis catus, iv; for VB (vagal block) / ΔBP (change in arterial blood pressure) / ΔH (change in heart rate) / RI (recovery index) / Onset: cat; for VB (vagal block) / ΔBP (change in arterial blood pressure) / ΔH (change in heart rate): at 80-85% neuromuscular blocking dose; for RI (recovery index): spontaneous recovery, 25-75% neuromuscular response; for Onset: time to 80-85% neuromuscular block
# Text: as §3, §4, §5, §6, §7, §8
# b) Adult cats were anesthetized with a mixture of 70 mg/kg alpha chloralose and 0.5 g/kg ethylurethane intraperitoneally. One thigh was fixed in a vertical position by means of a pin at the lower end of the femur. Needle electrodes were placed on the sciatic or the common peroneal nerve. A tendon of the anterior tibial muscle was attached to a force transducer and the muscle responses evoked, as described under a), were recorded. Both electromyographic and mechanomyographic responses can be quantified. Blood pressure and heart rate changes were recorded from appropriately cannulated arteries via a blood pressure transducer and cardiotachograph.
# [4] = rat, intravenous dose causing 50% neuromuscular block
# [5] = Oryctolagus cuniculus, read-out: ED50
# [6] = at 80-85% neuromuscular blocking dose
# [7] = rat, at 80-85% neuromuscular blocking dose
smiles,measurement,setting,value
"CC(=O)Oc1ccc(C[N+]2(C)C3CCCC2CC(OC(=O)CCCCCC(=O)OC2CC4CCCC(C2)[N+]4(C)Cc2ccc(OC(C)=O)c(OC(C)=O)c2)C3)cc1OC(C)=O.[Br-].[Br-] (stereo not shown) [bis[N-(3,4-diacetoxybenzyl)granataninium-3-yl]pimelate dibromide]",ΔBP (change in arterial blood pressure),anesthetized monkeys; in vivo,0%
same,ΔH (change in heart rate),anesthetized monkeys; in vivo,0%
same,ED50,anesthetized monkeys; intravenous dose causing 50% neuromuscular block,0.15 mg/kg
same,RI (recovery index),"anesthetized monkeys; spontaneous recovery, 25-75% neuromuscular response",0.55 min
same,Onset,anesthetized monkeys; time to 80-85% neuromuscular block,1.2 min
same,ΔBP (change in arterial blood pressure),rabbits; in vivo,0%
same,ΔH (change in heart rate),rabbits; in vivo,0%
same,ED50,rabbits,0.266 mg/kg
same,RI (recovery index),rabbits,0.6 min
same,Onset,rabbits,0.72 min
same,VB (vagal block),[1]; in vivo,48%
same,ΔBP (change in arterial blood pressure),[1]; in vivo,0%
same,ΔH (change in heart rate),[1]; in vivo,0%
same,ED50,[1],0.193 mg/kg
same,RI (recovery index),[1],1 min
same,Onset,[1],0.7 min
same,VB (vagal block),"[2]; rat, in vivo",0%
same,ΔBP (change in arterial blood pressure),"[2]; rat, in vivo",0%
same,ΔH (change in heart rate),"[2]; rat, in vivo",0%
same,ED50,[2]; [4],0.175 mg/kg
same,RI (recovery index),[2]; rat,0.4 min
same,Onset,[2]; rat,0.45 min
"CCC(=O)Oc1ccc(C[N+]2(C)[C@@H]3CC[C@H]2C[C@@H](OC(=O)CCCCC(=O)O[C@H]2C[C@H]4CC[C@@H](C2)[N+]4(C)Cc2ccc(OC(=O)CC)c(OC(=O)CC)c2)C3)cc1OC(=O)CC.[Br-].[Br-] (stereo partly drawn) [bis[N-(3,4-dipropionyloxybenzyl)tropanium-3α-yl]adipate dibromide]",ED50,rabbits; [5],0.075 mg/kg
same,ΔBP (change in arterial blood pressure),rabbits; [6],0%
same,ΔH (change in heart rate),rabbits; [6],0%
same,RI (recovery index),rabbits,0.65 min
same,Onset,rabbits,0.9 min
same,ED50,"[1]; Sus scrofa, read-out: ED50",0.3 mg/kg
same,VB (vagal block),[1]; [6],65%
same,ΔBP (change in arterial blood pressure),[1]; [6],0%
same,ΔH (change in heart rate),[1]; [6],0%
same,RI (recovery index),[1],0.75 min
same,Onset,[1],0.65 min
same,ED50,"[2]; Rattus norvegicus, iv",0.217 mg/kg
same,VB (vagal block),[2]; [7],18%
same,ΔBP (change in arterial blood pressure),[2]; [7],0%
same,ΔH (change in heart rate),[2]; [7],0%
same,RI (recovery index),[2]; rat,0.4 min
same,Onset,[2]; rat,0.6 min
"CCC(=O)Oc1ccc(C[N+]2(C)[C@@H]3CC[C@H]2C[C@@H](OC(=O)C2CCC2C(=O)O[C@H]2C[C@H]4CC[C@@H](C2)[N+]4(C)Cc2ccc(OC(=O)CC)c(OC(=O)CC)c2)C3)cc1OC(=O)CC.[Br-].[Br-] (stereo partly drawn) [bis[N-(3,4-dipropionyloxybenzyl)tropanium-3α-yl]cyclobutane-1,2-dicarboxylate dibromide]",ED50,rabbits; [5],0.128 mg/kg
same,ΔBP (change in arterial blood pressure),rabbits; [6],0%
same,ΔH (change in heart rate),rabbits; [6],0%
same,RI (recovery index),rabbits,0.5 min
same,Onset,rabbits,0.87 min
same,ED50,"[1]; Sus scrofa, read-out: ED50",0.317 mg/kg
same,VB (vagal block),[1]; [6],50%
same,ΔBP (change in arterial blood pressure),[1]; [6],0%
same,ΔH (change in heart rate),[1]; [6],0%
same,RI (recovery index),[1],0.6 min
same,Onset,[1],0.7 min
same,ED50,"[2]; Rattus norvegicus, iv",0.238 mg/kg
same,VB (vagal block),[2]; [7],17%
same,ΔBP (change in arterial blood pressure),[2]; [7],0%
same,ΔH (change in heart rate),[2]; [7],0%
same,RI (recovery index),[2]; rat,0.6 min
same,Onset,[2]; rat,0.6 min
"CCC(=O)Oc1ccc(C[N+]2(C)[C@@H]3CC[C@H]2C[C@@H](OC(=O)CCCC(=O)O[C@H]2C[C@H]4CC[C@@H](C2)[N+]4(C)Cc2ccc(OC(=O)CC)c(OC(=O)CC)c2)C3)cc1OC(=O)CC.[Br-].[Br-] (stereo partly drawn) [bis[N-(3,4-dipropionyloxybenzyl)tropanium-3α-yl]glutarate dibromide]",ED50,rabbits; [5],0.065 mg/kg
same,ΔBP (change in arterial blood pressure),rabbits; [6],0%
same,ΔH (change in heart rate),rabbits; [6],0%
same,RI (recovery index),rabbits,0.8 min
same,Onset,rabbits,1 min
same,ED50,"[1]; Sus scrofa, read-out: ED50",0.45 mg/kg
same,VB (vagal block),[1]; [6],70%
same,ΔBP (change in arterial blood pressure),[1]; [6],0%
same,ΔH (change in heart rate),[1]; [6],0%
same,RI (recovery index),[1],0.6 min
same,Onset,[1],1.1 min
same,ED50,"[2]; Rattus norvegicus, iv",0.3 mg/kg
same,VB (vagal block),[2]; [7],0%
same,ΔBP (change in arterial blood pressure),[2]; [7],0%
same,ΔH (change in heart rate),[2]; [7],0%
same,RI (recovery index),[2]; rat,0.5 min
same,Onset,[2]; rat,0.7 min
"CCC(=O)Oc1c(OC)cc(C[N+]2(C)[C@@H]3CC[C@H]2C[C@@H](OC(=O)C2CCCC(C(=O)O[C@H]4C[C@H]5CC[C@@H](C4)[N+]5(C)Cc4cc(OC)c(OC(=O)CC)c(OC)c4)C2)C3)cc1OC.[Br-].[Br-] (stereo partly drawn) [bis[N-(3,5-dimethoxy-4-propionyloxybenzyl)tropanium-3α-yl]cyclohexane-1,3-dicarboxylate dibromide]",ED50,rabbits; [5],0.4 mg/kg
same,ΔBP (change in arterial blood pressure),rabbits; [6],0%
same,ΔH (change in heart rate),rabbits; [6],0%
same,RI (recovery index),rabbits,0.4 min
same,Onset,rabbits,0.45 min
same,ED50,"[1]; Sus scrofa, read-out: ED50",0.25 mg/kg
same,VB (vagal block),[1]; [6],30%
same,ΔBP (change in arterial blood pressure),[1]; [6],0%
same,ΔH (change in heart rate),[1]; [6],0%
same,RI (recovery index),[1],1.3 min
same,Onset,[1],0.7 min
same,ED50,"[2]; Rattus norvegicus, iv",0.27 mg/kg
same,VB (vagal block),[2]; [7],0%
same,ΔBP (change in arterial blood pressure),[2]; [7],0%
same,ΔH (change in heart rate),[2]; [7],0%
same,RI (recovery index),[2]; rat,0.45 min
same,Onset,[2]; rat,0.55 min
"COc1cc(C[N+]2(C)[C@@H]3CC[C@H]2C[C@@H](OC(=O)CCCCCCCCCC(=O)O[C@H]2C[C@H]4CC[C@@H](C2)[N+]4(C)Cc2cc(OC)c(OC(C)=O)c(OC)c2)C3)cc(OC)c1OC(C)=O.[Br-].[Br-] (stereo partly drawn) [bis[N-(4-acetoxy-3,5-dimethoxybenzyl)tropanium-3α-yl]1,9-nonanedicarboxylate dibromide]",ED50,rabbits; [5],0.5 mg/kg
same,ΔBP (change in arterial blood pressure),rabbits; [6],0%
same,ΔH (change in heart rate),rabbits; [6],0%
same,RI (recovery index),rabbits,0.35 min
same,Onset,rabbits,0.35 min
same,ED50,"[1]; Sus scrofa, read-out: ED50",0.6 mg/kg
same,VB (vagal block),[1]; [6],90%
same,ΔBP (change in arterial blood pressure),[1]; [6],0%
same,ΔH (change in heart rate),[1]; [6],0%
same,RI (recovery index),[1],1.2 min
same,Onset,[1],0.5 min
same,ED50,"[2]; Rattus norvegicus, iv",0.5 mg/kg
same,VB (vagal block),[2]; [7],99%
same,ΔBP (change in arterial blood pressure),[2]; [7],0%
same,ΔH (change in heart rate),[2]; [7],0%
same,RI (recovery index),[2]; rat,0.5 min
same,Onset,[2]; rat,0.4 min
"COc1cc(C[N+]2(C)C3CCC2CC(OC(=O)C2C4C=CC(C4)C2C(=O)OC2CC4CCC(C2)[N+]4(C)Cc2cc(OC)c(OC(C)=O)c(OC)c2)C3)cc(OC)c1OC(C)=O.[Br-].[Br-] (stereo not drawn) [bis[N-(4-acetoxy-3,5-dimethoxybenzyl)tropanium-3α-yl]trans-3,6-endomethylene-1,2,3,6-tetrahydrophthalate dibromide]",ΔBP (change in arterial blood pressure),rabbits; in vivo,0%
same,ΔH (change in heart rate),rabbits; in vivo,0%
same,ED50,rabbits,0.145 mg/kg
same,RI (recovery index),rabbits,0.45 min
same,Onset,rabbits,0.45 min
same,VB (vagal block),[1]; in vivo,26%
same,ΔBP (change in arterial blood pressure),[1]; in vivo,0%
same,ΔH (change in heart rate),[1]; in vivo,0%
same,ED50,[1],0.343 mg/kg
same,RI (recovery index),[1],2 min
same,Onset,[1],0.54 min
same,VB (vagal block),[2]; [7],20%
same,ΔBP (change in arterial blood pressure),[2]; [7],0%
same,ΔH (change in heart rate),[2]; [7],0%
same,ED50,[2]; [4],0.2 mg/kg
same,RI (recovery index),[2]; rat,0.8 min
same,Onset,[2]; rat,0.7 min
"C[N+]1(CC2CC2)[C@@H]2CC[C@H]1C[C@@H](OC(=O)CCCCCCC(=O)O[C@H]1C[C@H]3CC[C@@H](C1)[N+]3(C)CC1CC1)C2.[Br-].[Br-] (stereo partly drawn) [bis[N-(cyclopropylmethyl)tropanium-3α-yl]suberate dibromide, reference compound]",ED50,[3],0.155 mg/kg
same,VB (vagal block),[3],80%
same,ΔBP (change in arterial blood pressure),[3],0%
same,ΔH (change in heart rate),[3],0%
same,RI (recovery index),[3],9 min
same,Onset,[3],1.4 min
"C[N+]1(C)[C@@H]2CC[C@H]1C[C@@H](OC(=O)CCCCCCCCC(=O)O[C@H]1C[C@H]3CC[C@@H](C1)[N+]3(C)C)C2.[I-].[I-] [bis[N-methyltropanium-3α-yl]sebacate diiodide, reference compound]",ED50,[3],0.125 mg/kg
same,VB (vagal block),[3],100%
same,ΔBP (change in arterial blood pressure),[3],0%
same,ΔH (change in heart rate),[3],0%
same,RI (recovery index),[3],3.9 min
same,Onset,[3],2.3 min
